According to the supplement of paper PMC10627819:

How the values were obtained:
S. aureus DSM 20231 [1] = experiment: fitness (endpoint OD595 vs no drug) (fraction); higher = more growth
Summary of the method: (§1)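 Each well of a 384-well plate received 30 µl of culture at OD595 0.01, or 55 µl for S. pneumoniae. TSB, LB Lennox or CY served as media at 37 °C. OD595 was taken every 30 min for 14 h and corrected by subtracting the first reading. Fitness is the optical density at stationary-phase entry divided by the robust mean of no-drug controls, capped at 1.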

S. pneumoniae D39V [2] = experiment: as above
Summary of the method: as §1

S. aureus Newman [3] = experiment: as above
Summary of the method: as §1

B. subtilis 168 [4] = experiment: as above
Summary of the method: as §1

S. aureus DSM 20231 [5] = experiment: Bliss interaction score (quartile over a dose matrix) (fitness difference); higher = more antagonism (negative = synergy)
Summary of the method: (§2)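 At entry into stationary phase, OD595 was recorded and divided by the robust mean of the no-drug wells on that plate, with any value above 1 set to 1. This gives the fitness measure used throughout. Single-drug fitness was inferred from combination data, and the Bliss score, observed minus product-expected fitness, is shown as quartiles across technical, biological and donor/recipient replicates.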

S. pneumoniae D39V [6] = experiment: as above
Summary of the method: as §2

S. aureus Newman [7] = experiment: as above
Summary of the method: as §2

B. subtilis 168 [8] = experiment: as above
Summary of the method: as §2
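Throughout, for Bliss interaction score (quartile over a dose matrix): first quartile when negative (synergy) and third quartile when positive (antagonism).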

O=C(O[C@@H]1Cc2c(O)cc(O)cc2O[C@@H]1c1cc(O)c(O)c(O)c1)c1cc(O)c(O)c(O)c1 [EGCG] + Cc1ncc([N+](=O)[O-])n1CCO [Metronidazole]
fitness
Conditions | partner 0.625 µg/mL | partner 1.073 µg/mL | partner 1.25 µg/mL | partner 2.145 µg/mL | partner 2.5 µg/mL | partner 4.29 µg/mL | partner 5 µg/mL
B. subtilis 168 [4], first compound 6.25 µg/mL | 0.969 | – | 0.944 | – | 0.928 | – | –
S. aureus DSM 20231 [1], first compound 12.5 µg/mL | 0.853 | – | 0.787 | – | 0.795 | – | –
S. aureus DSM 20231 [1], first compound 25 µg/mL | 0.792 | – | 0.807 | – | 0.838 | – | –
S. aureus DSM 20231 [1], first compound 50 µg/mL | 0.779 | – | 0.753 | – | 0.841 | – | –
S. aureus Newman [3], first compound 12.5 µg/mL | 0.833 | – | 0.847 | – | 0.809 | – | –
S. aureus Newman [3], first compound 25 µg/mL | 0.833 | – | 0.807 | – | 0.785 | – | –
S. aureus Newman [3], first compound 50 µg/mL | 0.769 | – | 0.747 | – | 0.736 | – | –
S. pneumoniae D39V [2], first compound 12.5 µg/mL | – | 0.888 | 0.956 | 0.493 | 0.982 | 0.825 | 0.976
S. pneumoniae D39V [2], first compound 25 µg/mL | – | 0.839 | 0.979 | – | ≥ 1 | – | 0.984
S. pneumoniae D39V [2], first compound 50 µg/mL | – | 0.803 | 0.813 | 0.391 | 0.949 | 0.602 | 0.907

fitness, S. aureus Newman [3], one replicate
Conditions | first compound 12.5 µg/mL | first compound 25 µg/mL | first compound 50 µg/mL
partner 0.781 µg/mL | 0.781 | 0.807 | 0.943
partner 1.562 µg/mL | 0.8 | 0.833 | ≥ 1
partner 3.124 µg/mL | 0.782 | 0.81 | 0.963

Conditions | Bliss interaction score
B. subtilis 168 [8] | -0.039
S. aureus DSM 20231 [5] | -0.112
S. aureus Newman [7] | 0.0648
S. pneumoniae D39V [6] | -0.0826

O=C(O[C@@H]1Cc2c(O)cc(O)cc2O[C@@H]1c1cc(O)c(O)c(O)c1)c1cc(O)c(O)c(O)c1 [EGCG] + Cc1onc(-c2ccccc2)c1C(=O)N[C@@H]1C(=O)N2[C@@H]1SC(C)(C)[C@@H]2C(=O)O [Oxacillin]
fitness
Conditions | first compound 6.25 µg/mL | first compound 12.5 µg/mL | first compound 25 µg/mL | first compound 50 µg/mL
B. subtilis 168 [4], partner 0.002 µg/mL | 0.935 | – | 0.202 | –
B. subtilis 168 [4], partner 0.004 µg/mL | 0.924 | 0.538 | 0.205 | –
B. subtilis 168 [4], partner 0.008 µg/mL | 0.898 | 0.525 | 0.186 | –
S. aureus DSM 20231 [1], partner 0.0156 µg/mL | – | 0.645 | 0.582 | 0.62
S. aureus DSM 20231 [1], partner 0.0312 µg/mL | – | 0.498 | 0.548 | –
S. aureus DSM 20231 [1], partner 0.0625 µg/mL | – | 0.442 | 0.393 | 0.34
S. aureus Newman [3], partner 0.0156 µg/mL | – | 0.591 | 0.605 | –
S. aureus Newman [3], partner 0.0312 µg/mL | – | 0.624 | 0.681 | –
S. aureus Newman [3], partner 0.0625 µg/mL | – | 0.59 | 0.636 | –
S. pneumoniae D39V [2], partner 0.005 µg/mL | – | 0.989 | 0.973 | ≥ 1
S. pneumoniae D39V [2], partner 0.01 µg/mL | – | 0.924 | 0.903 | 0.966
S. pneumoniae D39V [2], partner 0.02 µg/mL | – | 0.929 | 0.947 | 0.923
S. pneumoniae D39V [2], partner 0.04 µg/mL | – | 0.474 | 0.576 | 0.632

fitness, B. subtilis 168 [4], one replicate
Conditions | partner 0.0078 µg/mL | partner 0.0155 µg/mL | partner 0.031 µg/mL | partner 0.075 µg/mL | partner 0.15 µg/mL | partner 0.3 µg/mL
first compound 6.25 µg/mL | 0.998 | 0.978 | 0.972 | 0.515 | 0.0556 | 0.0544
first compound 12.5 µg/mL | 0.858 | 0.852 | 0.792 | 0.444 | 0.0247 | 0.0417
first compound 25 µg/mL | 0.602 | 0.559 | 0.434 | 0.139 | 0.0233 | 0.024

Conditions | Bliss interaction score
B. subtilis 168 [8] | -0.0648
S. aureus DSM 20231 [5] | -0.0707
S. aureus Newman [7] | 0.0991
S. pneumoniae D39V [6] | 0.0942
